Data: patent US12472193B2, “Methods and compositions for treating and preventing respiratory related diseases and conditions with xylitol-headgroup lipid analogs” (National Jewish Health, priority 2017, dated 2025)
Entries after “also recorded” stand apart in the source; their conditions may differ.

Experiments:
Type in all cases: cell-based
TLR 4 [1] = biological target: T1, TLR 4 (Mus musculus, UniProt Q9JHF9+Q9QUK6); assay: LPS-induced TNF-α secretion by RAW264.7 cells (TLR 4 antagonism); settings: for IC50 values (inhibition of TNFα release): RAW264.7, 10 ng/mL LPS, lipid 100 to 0.008 μg/mL; for potency as TLR 4 antagonist compared to POPG: from dose response curves
T1 construct: endogenous in cells; host or cells: RAW264.7 (ATCC)
T1 sequence (Q9QUK6 26-835): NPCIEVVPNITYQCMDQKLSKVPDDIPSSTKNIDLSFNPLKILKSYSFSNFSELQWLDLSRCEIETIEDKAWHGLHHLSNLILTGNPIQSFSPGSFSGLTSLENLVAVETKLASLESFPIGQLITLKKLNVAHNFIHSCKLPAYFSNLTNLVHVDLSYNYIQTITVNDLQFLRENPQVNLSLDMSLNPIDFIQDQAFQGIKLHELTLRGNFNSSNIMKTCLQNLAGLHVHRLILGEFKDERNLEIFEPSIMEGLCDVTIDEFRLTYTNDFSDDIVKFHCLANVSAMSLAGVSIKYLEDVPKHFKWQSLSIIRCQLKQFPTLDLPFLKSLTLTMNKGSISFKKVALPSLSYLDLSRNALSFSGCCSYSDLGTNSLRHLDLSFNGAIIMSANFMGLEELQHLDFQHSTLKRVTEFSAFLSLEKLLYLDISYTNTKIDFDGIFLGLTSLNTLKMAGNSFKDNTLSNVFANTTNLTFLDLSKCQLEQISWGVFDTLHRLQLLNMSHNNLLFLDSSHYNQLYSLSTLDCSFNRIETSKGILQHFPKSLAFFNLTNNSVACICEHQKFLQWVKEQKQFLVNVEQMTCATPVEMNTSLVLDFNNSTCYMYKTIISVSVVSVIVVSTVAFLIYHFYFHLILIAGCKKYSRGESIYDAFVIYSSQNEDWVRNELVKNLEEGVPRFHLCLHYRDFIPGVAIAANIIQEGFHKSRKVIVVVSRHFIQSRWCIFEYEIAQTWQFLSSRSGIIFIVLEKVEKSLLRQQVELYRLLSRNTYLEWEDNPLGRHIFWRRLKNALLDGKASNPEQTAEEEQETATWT
T1 sequence (Q9JHF9 19-160): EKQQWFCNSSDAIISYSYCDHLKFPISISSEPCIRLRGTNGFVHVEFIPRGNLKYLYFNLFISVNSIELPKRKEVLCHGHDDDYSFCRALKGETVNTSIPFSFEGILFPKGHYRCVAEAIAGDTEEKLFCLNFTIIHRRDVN
Experimental: (§1) The mouse macrophage cell line, RAW264.7, was obtained from ATCC and maintained in DMEM, supplemented with 10% bovine growth serum and 1× penicillin streptomycin. Cells were maintained at 37° C. with 5% carbon dioxide: 95% air atmosphere within the incubator. Experiments were completed in a 96-well plate where cells were seated at a density of 1×10^5 cells per well, 24 prior to stimulation with TLR agonists and antagonists. Lipids were dried under a stream of nitrogen, hydrated with phosphate-buffered saline (PBS) at 37° C. for one hour, followed by water bath sonication to create liposomes. Each condition for cell stimulation and antagonism was prepared in DMEM in a separate tube and consisted of: control, TLR agonist, TLR agonist+lipid, and lipid alone. 100 μL aliquots of medium+agonists+antagonists were added to each well and incubated at 37° C. for 4 hours. Subsequently, the media were collected, diluted and an enzyme-linked immunosorbent assay (ELISA) was performed to quantify TNFα release by cells.
The additional experiments disclosed herein, tested the initial activity of multiple POPG analogs. […] However, it was unknown how the combination of a xylitol head group along with varying hydrophobic chains affects this activity and mechanism of suppression. Varying the hydrophobic chains provides an approach for optimization of a PX lipid for maximum efficacy and uncovers important structure/function relationships. To test antagonist activity of PX lipids for preventing the activation of TLR 4, LPS was added to RAW264.7 cells at 10 ng/mL in the absence or presence of 50 μg/mL of lipid and incubated for 4 hours. After incubation, media were collected and secretion of the proinflammatory cytokine, TNFα, was quantified by ELISA as a downstream consequence of TLR 4 activation. Eight xylitol lipid analogs suppressed the activation of TLR 4 in the presence of LPS stimulus. […] Although inhibition of TLR 4 by DSPX was statistically different from LPS alone, its antagonism was marginal. DSPX is also a saturated lipid and the hydrophobic chains are 18 carbons in length. […] In these studies none of the lipids alone elicited significant amounts of proinflammatory cytokine release.
For quantitative comparisons between POPG analogs and POPG, concentration-dependent inhibition studies were performed and IC50 values were determined. RAW264.7 cells were stimulated with 10 ng/mL of LPS in combination with concentrations of lipid from 100 μg/mL to 0.008 μg/mL. Cells were stimulated for 4 hours followed by collection of media and quantification of TNFα released into the medium.

TLR 2/1 = biological target: T2, TLR 2/1 (Mus musculus, UniProt Q9EPQ1+Q9QUN7); assay: Pam3Cys-induced TNFα release by RAW264.7 cells (TLR 2/1 antagonism); settings: for suppression of TLR 2/1 activation (TNFα release): Pam3Cys, 4 hours; for TLR2/1 antagonist activity: reduction in cytokine secretion vs activating TLR ligand alone
T2 construct: endogenous in cells; host or cells: RAW264.7 (ATCC)
T2 sequence (Q9QUN7 25-784): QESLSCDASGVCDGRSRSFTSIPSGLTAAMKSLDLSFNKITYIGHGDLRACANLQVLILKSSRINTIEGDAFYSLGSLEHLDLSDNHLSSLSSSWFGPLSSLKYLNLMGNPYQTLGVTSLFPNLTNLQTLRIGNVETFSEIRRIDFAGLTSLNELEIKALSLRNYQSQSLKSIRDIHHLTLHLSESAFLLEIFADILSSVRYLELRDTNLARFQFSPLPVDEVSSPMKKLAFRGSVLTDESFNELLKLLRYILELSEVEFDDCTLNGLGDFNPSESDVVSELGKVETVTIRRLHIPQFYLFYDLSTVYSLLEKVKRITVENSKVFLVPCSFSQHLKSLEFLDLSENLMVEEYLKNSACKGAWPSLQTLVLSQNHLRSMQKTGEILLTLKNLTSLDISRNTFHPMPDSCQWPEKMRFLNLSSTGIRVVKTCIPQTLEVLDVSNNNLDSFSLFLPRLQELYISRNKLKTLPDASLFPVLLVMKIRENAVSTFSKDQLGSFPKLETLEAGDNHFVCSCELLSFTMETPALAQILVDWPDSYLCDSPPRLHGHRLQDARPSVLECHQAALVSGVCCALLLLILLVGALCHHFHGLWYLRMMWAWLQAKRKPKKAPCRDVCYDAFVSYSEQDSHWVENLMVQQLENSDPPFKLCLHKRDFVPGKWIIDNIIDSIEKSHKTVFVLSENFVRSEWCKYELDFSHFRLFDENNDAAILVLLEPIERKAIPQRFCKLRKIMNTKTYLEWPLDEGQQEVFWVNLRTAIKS
T2 sequence (Q9EPQ1 25-795 limits assumed): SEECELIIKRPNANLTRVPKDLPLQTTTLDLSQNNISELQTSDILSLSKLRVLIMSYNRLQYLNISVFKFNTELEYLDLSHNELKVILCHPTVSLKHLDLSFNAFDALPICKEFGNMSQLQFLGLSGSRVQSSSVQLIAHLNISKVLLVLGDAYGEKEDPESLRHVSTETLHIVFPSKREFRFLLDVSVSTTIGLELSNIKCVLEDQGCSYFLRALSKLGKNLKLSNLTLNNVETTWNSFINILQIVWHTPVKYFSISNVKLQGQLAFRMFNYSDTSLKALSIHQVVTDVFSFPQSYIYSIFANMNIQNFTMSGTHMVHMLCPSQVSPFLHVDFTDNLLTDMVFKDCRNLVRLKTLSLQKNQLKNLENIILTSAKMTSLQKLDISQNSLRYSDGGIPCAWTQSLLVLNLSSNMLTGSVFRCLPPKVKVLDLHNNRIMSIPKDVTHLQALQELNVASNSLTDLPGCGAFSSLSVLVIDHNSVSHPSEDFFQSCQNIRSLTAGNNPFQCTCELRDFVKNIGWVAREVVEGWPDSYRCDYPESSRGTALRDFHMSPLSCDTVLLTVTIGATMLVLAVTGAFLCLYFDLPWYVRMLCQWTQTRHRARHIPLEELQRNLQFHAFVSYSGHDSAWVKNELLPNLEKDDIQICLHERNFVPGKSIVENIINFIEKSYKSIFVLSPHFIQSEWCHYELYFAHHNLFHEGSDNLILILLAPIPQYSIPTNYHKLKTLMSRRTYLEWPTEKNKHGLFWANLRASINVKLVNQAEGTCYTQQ
Experimental: as §1
The ability of xylitol lipid analogs to suppress the activation of TLR 2 heterodimers was assessed. Pam3Cys was used to selectively stimulate TLR 2/1 signaling in RAW264.7 cells and MALP-2 was used as a TLR 2/6 selective agonist also in RAW264.7 cells. RAW264.7 cells were stimulated with Pam3Cys in the absence, or presence of PX lipids for 4 hours. Following incubation, media were collected, diluted and analyzed for TNFα release as a consequence of TLR activation. Results for analog activity against TLR 2/1 activation was assessed at two concentrations of phospholipid and are summarized in FIGS. 4A and 4B.
Initially, activity of xylitol lipid analogs was assessed at 100 μg/mL and it was unclear whether there was a real antagonist effect especially when compared to POPG. Experiments were repeated with a 200 μg/mL concentration of lipid to determine the ability of PX lipids to suppress TLR 2/1 activation in the presence of Pam3Cys. […] DPPX could have an effect on TLR 2/1 signaling at high concentrations.

TLR 4 [2] = biological target: T1, TLR 4; assay: LPS-induced TNF-α secretion by RAW264.7 cells (TLR 4 antagonism); settings: reduction in cytokine secretion vs activating TLR ligand alone

SMILES	IC50 values (inhibition of TNFα release) (TLR 4 [1]; 4 hours) [µg/mL]	potency as TLR 4 antagonist compared to POPG (TLR 4 [1])	suppression of TLR 2/1 activation (TNFα release) (TLR 2/1; 100 μg/mL lipid)	suppression of TLR 2/1 activation (TNFα release) (TLR 2/1; 200 μg/mL lipid)	suppression of TLR 2/1 activation (TNFα release) (TLR 2/1; 200 μg/mL lipid, listed as 18:2 DEPX)	TLR2/1 antagonist activity (TLR 2/1)	TLR2 antagonist activity (TLR 4 [2])	antagonism of TLR 4 activation (TNFα secretion) (TLR 4 [1]; 10 ng/mL LPS, 50 μg/mL lipid, 4 hours)
CCCCCC=CCC=CCCCCCCCC(=O)OCC(COP(=O)(O)OCC(O)C(O)C(O)CO)OC(=O)CCCCCCCC=CCC=CCCCCC (mixture of isomers) [18:2 DLPX, sn-1-linoleoyl, sn-2-linoleoyl sn-3 glycerol phosphoxylitol]	0.28	more potent antagonists of TLR 4 activation than POPG	modest antagonists	strongly suppressed; also recorded: suppressed TLR 2/1 activation	inhibit TLR2/1 activation to almost the same extent as the bioactive lipid POPG	+ (cutoff being greater than a 50% reduction in cytokine secretion compared to activating TLR ligand alone)	+ (cutoff being greater than a 50% reduction in cytokine secretion compared to activating TLR ligand alone)	–
CCCCCCCC/C=C\CCCCCCCC(=O)O[C@H](COC(=O)CCCCCCCCCCCCCCC)COP(=O)(O)OCC(O)C(O)C(O)CO (some centres unmarked) [POPX, sn-1-palmitoyl, sn-2-oleoyly sn-3 glycerol phosphoxylitol]	0.52	more potent antagonists of TLR 4 activation than POPG	modest antagonists	inhibit TLR2/1 activation to almost the same extent as the bioactive lipid POPG; also recorded: strongly suppressed; also recorded: suppressed TLR 2/1 activation	–	+ (cutoff being greater than a 50% reduction in cytokine secretion compared to activating TLR ligand alone)	+ (cutoff being greater than a 50% reduction in cytokine secretion compared to activating TLR ligand alone)	–
CCCCCCCCC=CCCCCCCCC(=O)OCC(COP(=O)(O)OCC(O)C(O)C(O)CO)OC(=O)CCCCCCCC=CCCCCCCCC (mixture of isomers) [DOPX, sn-1-oleoyl, sn-2-oleoyl sn-3 glycerol phosphoxylitol]	0.36	more potent antagonists of TLR 4 activation than POPG	modest antagonists	inhibit TLR2/1 activation to almost the same extent as the bioactive lipid POPG; also recorded: strongly suppressed; also recorded: suppressed TLR 2/1 activation	–	+ (cutoff being greater than a 50% reduction in cytokine secretion compared to activating TLR ligand alone)	+ (cutoff being greater than a 50% reduction in cytokine secretion compared to activating TLR ligand alone)	inhibit
